Reference: US12550899B2, “Topramezone derivative and use thereof” (priority 2023, dated 2026)
“Also recorded” adds a separate entry of the source.

Key:
Corn (White Waxy Corn) = test: Corn safety laboratory test; type: in vivo; conditions: in vivo
Method: Three corn varieties: Zhengdan 958, white waxy corn, and sweet corn (Runhua sweet corn).
The soil used for the test was a mixture of surface 20 cm loam and vermiculite, mixed in a volume ratio of 3:1 to form a culture soil. The test corn was cultured in a glass greenhouse with a temperature ranging from 25° C. to 35° C. and under natural light.
(§1) A measured quantity of corn seeds were sown in plastic pots with a diameter of 15 cm, and covered with 2-3 cm of soil. The ports were then placed in enamel trays filled with water, and watered by bottom irrigation. After sowing, the pots were transferred to the glass greenhouse for cultivation and growth.
In the corn safety test, dosages were set for the two Compounds (Compound I of the present invention and Compound II of the present invention) and the control herbicide Topramezone, which were 15, 30, 60, and 120 grams of active ingredient per hectare respectively. In addition, a blank control was also prepared.
The required amount of the herbicide was accurately measured out, an appropriate amount of emulsifier and organic solvent were added to dissolve the herbicide, and then a certain amount of water was added therein until the herbicide was diluted to the required dosage by using the serial dilution method for standby.
Corn stems and leaves were uniformly sprayed at the 3-4-leaf stage.
(§2) The ASS-3 automatic control spraying system with a fan-shaped nozzle was used indoors for herbicide application. Depending on the nozzle pressure and flow rate, 50 mL of herbicide solution was applied to a spraying area of 1.1 m^2 (which was equivalent to the water consumption of 30 L per mu). The system's operating speed was calibrated. The plastic pots to be treated were arranged evenly on the spraying platform to ensure uniform treatment. The spray pressure was set to 0.35 MPa, and the flow rate of the fan-shaped nozzle was set to 800 mL/min. The spraying was carried out in sequence from the low dosage to the high dosage. Each treatment was repeated three times.
The herbicide was applied once. After spraying, the pots were air-dried for one day and then placed in the glass greenhouse. Regular watering was conducted to maintain moisture.
After application of the herbicide, whether there were any phytotoxic symptoms in the corn for each treatment was recorded. If yes, the phytotoxicity symptoms and grade were recorded in detail. 15 days after application, the fresh weight of the corn in each treatment was measured and the fresh weight control efficacy was calculated to assess the safety of the herbicide on the corn.
The treatment results were calculated according to the following formula: fresh weight control efficacy (%)=(control fresh weight−treatment fresh weight)/control fresh weight×100.

Digitaria sanguinalis = test: Laboratory rainfastness test (foliar spray, simulated rainfall); type: in vivo; conditions: for Average fresh weight / Control efficacy: 20 days post-application
Method: Refer to the “Pesticides guidelines for laboratory bioactivity tests Part 4: Foliar spray application test for herbicide activity, NY/T 1155.4-2006”.
The soil used for the test was a mixture of surface 20 cm loam and vermiculite, mixed in a volume ratio of 3:1 to form a culture soil. The test weeds were cultured in a glass greenhouse with a temperature ranging from 25° C. to 35° C. and under natural light.
as §1, with “Digitaria sanguinalis” for “corn”, “9” for “15”, “1-2 mm” for “2-3 cm”, “the water seeped to the soil surface,” for “sowing,”, “standby.” for “cultivation and growth.”
Five dosages were set for Compound I, Compound II and the control herbicide Topramezone, which were 3.75, 7.5, 15, 30 and 60 grams of active ingredient per hectare respectively. In addition, a blank control was also prepared.
The required amount of the herbicide was accurately measured out and directly added with water, which was diluted to the required dosage by using the serial dilution method for standby.
as §2, with “test was conducted on Digitaria sanguinalis at the two-leaf and one-heart stage, with the stems and leaves both sprayed uniformly. The ASS-4” for “ASS-3”, “four” for “three”
The rainfastness test was set as follows: at 0.5 hours, 1.0 hour, 3.0 hours, and 6.0 hours after the application of the herbicide, the weeds that have already been sprayed with the herbicide were subjected to stem and leaf showering with a specific shower equipment simulating rainfall. Weeds that were not subjected to the showering treatment served as the control group.
The damage symptoms of the weeds (such as growth inhibition, chlorosis, malformation, etc.) were carefully recorded at 3, 7, 10, and 20 days after herbicide application. A visual comparison of the herbicide effectiveness was made after simulated rainfall at different time intervals. At 20 days post-application, the fresh weight of the aboveground parts of the weeds from each treatment group was measured, and the fresh weight control efficacy was calculated.
The treatment results were calculated according to the following formula: weed fresh weight control efficacy (%)=(control fresh weight−treatment fresh weight)/control fresh weight×100. A DPS statistical software was used to conduct regression analysis on the logarithmic values of the herbicide dosage and the probit values of the weed fresh weight control efficacy, and the correlation coefficient, GR50, GR90, and the 95% confidence interval were calculated.

[1] = No spraying (no simulated rainfall), dosage 3.75 g/hectare
[2] = No spraying (no simulated rainfall), dosage 7.5 g/hectare
[3] = No spraying (no simulated rainfall), dosage 15 g/hectare
[4] = No spraying (no simulated rainfall), dosage 30 g/hectare
[5] = No spraying (no simulated rainfall), dosage 60 g/hectare
[6] = Spraying water 0.5 hour after herbicide application, dosage 3.75 g/hectare
[7] = Spraying water 0.5 hour after herbicide application, dosage 7.5 g/hectare
[8] = Spraying water 0.5 hour after herbicide application, dosage 15 g/hectare
[9] = Spraying water 0.5 hour after herbicide application, dosage 30 g/hectare
[10] = Spraying water 0.5 hour after herbicide application, dosage 60 g/hectare
[11] = Spraying water 1.0 hour after herbicide application, dosage 3.75 g/hectare
[12] = Spraying water 1.0 hour after herbicide application, dosage 7.5 g/hectare
[13] = Spraying water 1.0 hour after herbicide application, dosage 15 g/hectare
[14] = Spraying water 1.0 hour after herbicide application, dosage 30 g/hectare
[15] = Spraying water 1.0 hour after herbicide application, dosage 60 g/hectare
[16] = Spraying water 3.0 hour after herbicide application, dosage 3.75 g/hectare
[17] = Spraying water 3.0 hour after herbicide application, dosage 7.5 g/hectare
[18] = Spraying water 3.0 hour after herbicide application, dosage 15 g/hectare
[19] = Spraying water 3.0 hour after herbicide application, dosage 30 g/hectare
[20] = Spraying water 3.0 hour after herbicide application, dosage 60 g/hectare
[21] = Spraying water 6.0 hour after herbicide application, dosage 3.75 g/hectare
[22] = Spraying water 6.0 hour after herbicide application, dosage 7.5 g/hectare
[23] = Spraying water 6.0 hour after herbicide application, dosage 15 g/hectare
[24] = Spraying water 6.0 hour after herbicide application, dosage 30 g/hectare
[25] = Spraying water 6.0 hour after herbicide application, dosage 60 g/hectare

## COC(=O)OC(C)Oc1c(C(=O)c2ccc(S(C)(=O)=O)c(C3=NOCC3)c2C)cnn1C (stereo not shown) [Compound I, 1-((4-(3-(4,5-dihydroisoxazol-3-yl)-2-methyl-4-(methylsulfonyl)benzoyl)-1-methyl-1H-pyrazol-5-yl)oxy)ethyl methyl carbonate]
Corn (White Waxy Corn)
  Corn Growth Status: Good, Normal Growth
  Growth of corn / phytotoxicity (in words): normal, without causing any phytotoxicity
Digitaria sanguinalis; [1]
  Average fresh weight: 6.3 g
  Control efficacy: 3.1%
Digitaria sanguinalis; [2]
  Average fresh weight: 5.1 g
  Control efficacy: 21.8%
Digitaria sanguinalis; [3]
  Average fresh weight: 3.2 g
  Control efficacy: 50.6%
Digitaria sanguinalis; [4]
  Average fresh weight: 2.6 g
  Control efficacy: 60.5%
Digitaria sanguinalis; [5]
  Average fresh weight: 1.1 g
  Control efficacy: 82.8%
Digitaria sanguinalis; [6]
  Average fresh weight: 6.1 g
  Control efficacy: 6.9%
Digitaria sanguinalis; [7]
  Average fresh weight: 5.1 g
  Control efficacy: 22.2%
Digitaria sanguinalis; [8]
  Average fresh weight: 3.6 g
  Control efficacy: 45.6%
Digitaria sanguinalis; [9]
  Average fresh weight: 2.6 g
  Control efficacy: 60.9%
Digitaria sanguinalis; [10]
  Average fresh weight: 1.1 g
  Control efficacy: 82.8%
Digitaria sanguinalis; [11]
  Average fresh weight: 6.1 g
  Control efficacy: 7.3%
Digitaria sanguinalis; [12]
  Average fresh weight: 5.2 g
  Control efficacy: 21.1%
Digitaria sanguinalis; [13]
  Average fresh weight: 3.9 g
  Control efficacy: 41.0%
Digitaria sanguinalis; [14]
  Average fresh weight: 2.3 g
  Control efficacy: 64.8%
Digitaria sanguinalis; [15]
  Average fresh weight: 0.9 g
  Control efficacy: 86.6%
Digitaria sanguinalis; [16]
  Average fresh weight: 5.6 g
  Control efficacy: 14.9%
Digitaria sanguinalis; [17]
  Average fresh weight: 4.7 g
  Control efficacy: 28.7%
Digitaria sanguinalis; [18]
  Average fresh weight: 3.3 g
  Control efficacy: 50.2%
Digitaria sanguinalis; [19]
  Average fresh weight: 2.7 g
  Control efficacy: 58.2%
Digitaria sanguinalis; [20]
  Average fresh weight: 0.9 g
  Control efficacy: 86.6%
Digitaria sanguinalis; [21]
  Average fresh weight: 6.0 g
  Control efficacy: 8.4%
Digitaria sanguinalis; [22]
  Average fresh weight: 5.0 g
  Control efficacy: 23.4%
Digitaria sanguinalis; [23]
  Average fresh weight: 2.7 g
  Control efficacy: 58.6%
Digitaria sanguinalis; [24]
  Average fresh weight: 2.3 g
  Control efficacy: 64.4%
Digitaria sanguinalis; [25]
  Average fresh weight: 1.1 g
  Control efficacy: 82.8%
Digitaria sanguinalis; in vivo
  Rainfastness compared with Topramezone (in words): significantly better rainfastness
Digitaria sanguinalis; rain 0.5 h, 1.0 h and 3.0 h after application
  Effect of rain on control efficacy (in words): remained stable
Digitaria sanguinalis; rain 0.5 h after application
  Effect of rain on control efficacy (in words): little impact; also recorded: almost unaffected
